From the NIST ThermoML archive (doi:10.1021/je034180e)

Details: Liquid

CC(C)C(=O)O [2-methylpropanoic acid]
Details	vapor or sublimation pressure [kPa]
375.21 K	14.55
382.14 K	19.58
391.77 K	29.65
399.43 K	39.72
405.44 K	49.79
410.75 K	59.85
415.51 K	69.92
419.77 K	79.99
423.36 K	90.07
424.86 K	95.1
426.16 K	100.59

CC(C)CC(=O)O [3-methylbutanoic acid]
Details	vapor or sublimation pressure [kPa]
396.05 K	14.56
402.9 K	19.59
412.87 K	29.65
420.7 K	39.72
427.18 K	49.78
432.62 K	59.86
437.44 K	69.92
441.6 K	79.99
445.16 K	90.07
446.6 K	95.1
447.92 K	100.08

CCCC(=O)O [butanoic acid]
Details	vapor or sublimation pressure [kPa]
383.55 K	14.56
390.87 K	19.58
401.32 K	29.65
409 K	39.72
415 K	49.79
420.22 K	59.86
424.81 K	69.92
428.96 K	79.99
432.61 K	90.07
434.51 K	95.1
436.05 K	100.04

CCCCCCC(=O)O [heptanoic acid]
Details	vapor or sublimation pressure [kPa]
413.48 K	4.7
426.48 K	8.63
435.07 K	12.56
441.33 K	16.57
446.4 K	20.63
451 K	24.65
453.8 K	27.67

CCCCCC(=O)O [hexanoic acid]
Details	vapor or sublimation pressure [kPa]
413.4 K	9.52
422.88 K	14.56
429.92 K	19.59
435.62 K	24.63
440.03 K	29.64
444.26 K	34.68
447.88 K	39.72
451.43 K	44.75

CCCCC(=O)O [pentanoic acid]
Details	vapor or sublimation pressure [kPa]
403.15 K	14.56
410.71 K	19.59
417.07 K	24.63
422.19 K	29.65
430.08 K	39.72
436.48 K	49.78
441.89 K	59.85
446.45 K	69.92
448.48 K	74.96
450.35 K	79.99
451.92 K	85.03

CCC(=O)O [propanoic acid]
Details	vapor or sublimation pressure [kPa]
361.52 K	14.56
368.37 K	19.58
378.95 K	29.65
386.74 K	39.73
392.93 K	49.79
398.09 K	59.86
402.65 K	69.92
406.8 K	79.99
410.33 K	90.07
411.97 K	95.1
413.74 K	101.21
